Results published in US9896441B2 (Lycera Corporation, priority 2014, dated 2018).

Assays:
RORγ-LBD = target: T1, RORγ-LBD (Homo sapiens, UniProt P51449); test: RORγ-Ligand Binding Domain (LBD) TR-FRET Assay; format: biochemical; details: for TR-FRET Assay Max Response: maximum response;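 on TR-FRET Assay Max Response: 665/615 nm signal ratio set to 100 without ursolic acid or test compound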
T1 construct: made in house; host or cells: SF9 cells (baculovirus); used as diluted lysate
T1 sequence (P51449 269-508 limits assumed): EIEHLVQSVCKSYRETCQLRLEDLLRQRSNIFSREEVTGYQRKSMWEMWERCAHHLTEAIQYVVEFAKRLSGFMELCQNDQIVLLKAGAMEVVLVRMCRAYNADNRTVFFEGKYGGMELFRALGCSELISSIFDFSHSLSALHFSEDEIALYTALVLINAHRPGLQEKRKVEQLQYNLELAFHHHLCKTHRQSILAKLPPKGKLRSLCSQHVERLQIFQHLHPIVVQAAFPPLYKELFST
Procedure, shortened: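 SF9 lysate containing His-RORγ-LBD, ~3 nM final; coactivator peptide biotin-SRC1 LXXLL, 200 nM final; ursolic acid 2 μM final; DMSO 1% final; Tris pH 7.0 buffer with KCl, EDTA, DTT, BSA. TR-FRET format.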

Gal4-RORγ-LBD = target: T2, Gal4-RORγ-LBD (Homo sapiens, UniProt P51449); test: Gal4-RORγ Luciferase Reporter Assay in HEK-293T Cells; format: cell-based; details: HEK-293 cells; for Gal4-RORγ Assay Max Response: maximum response
T2 construct: expressed in transfected cells
T2 sequence (P51449 269-508 limits assumed): T1 sequence (P51449 269-508 limits assumed)
Procedure, shortened: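 HEK-293 cells were co-transfected with Gal4-RORγ-LBD and a Gal4-luciferase reporter, then exposed overnight at 37 °C to compounds with […] ursolic acid present (0.2% DMSO). Luminescence was read with One-Glo after 10 min at RT, untreated signal was set as 100, and Max Response was taken as the upper plateau of a 4-parameter logistic fit.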

[1] = luciferase reporter, with ursolic acid
[2] = luciferase reporter, in presence of ursolic acid

Row | EC50 (RORγ-LBD; RORγ-LBD TR-FRET) [nM] | EC50 (Gal4-RORγ-LBD; [1]) [nM] | SMILES | also measured
1 | < 500 | 500 to 5000 | COc1ccccc1/C=C/c1ccc2c(c1)N(S(=O)(=O)c1cccc(OC(F)F)c1)C[C@H](CCC(=O)O)O2 [Example 89AY, (S,E)-3-(4-((3-(difluoromethoxy)phenyl)sulfonyl)-6-(2-methoxystyryl)-3,4-dihydro-2H-benzo[b][1,4]oxazin-2-yl)propanoic acid] | 
2 |  |  | CC(=O)NC[C@H]1CN(S(=O)(=O)c2cccc(C(F)(F)F)c2)c2cc(/C=C(\C)c3c(F)cccc3Cl)ccc2O1 [Example 109C, (S,E)-N-((6-(2-(2-chloro-6-fluorophenyl)prop-1-en-1-yl)-4-((3-(trifluoromethyl)phenyl)-sulfonyl)-3,4-dihydro-2H-benzo[b][1,4]oxazin-2-yl)methyl)acetamide] | EC50 (RORγ-LBD; RORγ-LBD TR-FRET assay): < 500 nM; TR-FRET Assay Max Response (RORγ-LBD; RORγ-LBD TR-FRET assay): ** (a value in the range of greater than 90 to 150); EC50 (Gal4-RORγ-LBD; [2]): < 500 nM; Gal4-RORγ Assay Max Response (Gal4-RORγ-LBD; [2]): ** (a value in the range of greater than 90 to 150)
3 | > 10000 | > 10000 | CCOc1nn(CC)cc1S(=O)(=O)N1C[C@H](CCC(=O)O)Oc2ccc(/C=C/c3nccnc3Cl)cc21 [Example 89M, (S,E)-3-(6-(2-(3-chloropyrazin-2-yl)vinyl)-4-((3-ethoxy-1-ethyl-1H-pyrazol-4-yl)sulfonyl)-3,4-dihydro-2H-benzo[b][1,4]oxazin-2-yl)propanoic acid] | 
4 | < 500 | < 500 | COC(=O)C(C)(C)C[C@@H]1Cc2ccc(OCc3c(F)cccc3Cl)cc2N(S(=O)(=O)c2ccc(F)c(OC)c2)C1 [Example 26, (S)-Methyl 3-(7-((2-chloro-6-fluorobenzyl)oxy)-1-((4-fluoro-3-methoxyphenyl)sulfonyl)-1,2,3,4-tetrahydroquinolin-3-yl)-2,2-dimethylpropanoate] | 
5 |  |  | C/C(=C\c1ccc2c(c1)N(S(=O)(=O)c1cccc(C(F)(F)F)c1)C[C@H](CNC(=O)N(C)CCC(=O)O)O2)c1c(F)cccc1Cl [Example 116P, (S,E)-3-(3-((6-(2-(2-chloro-6-fluorophenyl)prop-1-en-1-yl)-4-((3-(trifluoromethyl)phenyl)sulfonyl)-3,4-dihydro-2H-benzo[b][1,4]-oxazin-2-yl)methyl)-1-methylureido)propanoic acid] | EC50 (RORγ-LBD; with 2 μM ursolic acid (RORγ antagonist), highest test concentration 10 μM): < 500 nM; EC50 (Gal4-RORγ-LBD; ursolic acid present, luciferase readout): < 500 nM
6 |  |  | C/C(=C\c1ccc2c(c1)N(S(=O)(=O)c1cccc(C(F)(F)F)c1)C[C@H](CCCN1CCS(=O)(=O)CC1)O2)c1c(F)cccc1Cl [Example 119H, (S,E)-4-(3-(6-(2-(2-chloro-6-fluorophenyl)prop-1-en-1-yl)-4-((3-(trifluoromethyl)-phenyl)sulfonyl)-3,4-dihydro-2H-benzo[b][1,4]oxazin-2-yl)propyl)thiomorpholine 1,1-dioxide] | EC50 (RORγ-LBD; RORγ-LBD TR-FRET assay): < 500 nM; TR-FRET Assay Max Response (RORγ-LBD; RORγ-LBD TR-FRET assay): *** (a value in the range of greater than 150 to 200); EC50 (Gal4-RORγ-LBD; [2]): < 500 nM; Gal4-RORγ Assay Max Response (Gal4-RORγ-LBD; [2]): ** (a value in the range of greater than 90 to 150)
7 | < 500 | < 500 | C/C(=C\c1ccc2c(c1)N(S(=O)(=O)c1cccc(C(F)(F)F)c1)C[C@H](CCC(=O)O)O2)c1ccccc1C(F)(F)F [Example 86AG, (S,E)-3-(6-(2-(2-(trifluoromethyl)-phenyl)prop-1-en-1-yl)-4-((3-(trifluoromethyl)phenyl)sulfonyl)-3,4-dihydro-2H-benzo[b][1,4]-oxazin-2-yl)propanoic acid] | 
8 | < 500 | 500 to 5000 | O=C(O)CC[C@H]1CN(S(=O)(=O)c2cn(C3CC3)nc2OCCO)c2cc(/C=C/c3c(Cl)cccc3C(F)(F)F)ccc2O1 [Example 89EG, (S,E)-3-(6-(2-chloro-6-(trifluoromethyl)styryl)-4-((1-cyclopropyl-3-(2-hydroxyethoxy)-1H-pyrazol-4-yl)sulfonyl)-3,4-dihydro-2H-benzo[b][1,4]oxazin-2-yl)propanoic acid] | 
